Laboratory results published in patent publication US4322412A, “Anthracycline glycosides, their preparation, use and compositions thereof” (priority 1979, dated 1982).
Values after ≈ are worked out from the molar mass of the structure shown. Structures can show the parent of a compound that is named as a salt. Where two headings read alike, the source gives them in different places. Blank lines part the entries; values can stand above or below the compound they belong to.

Legend:
HeLa cells = test: Effect on HeLa Cells Cloning Efficiency In Vitro; type: cell-based; settings: for IC50: Homo sapiens, HeLa, read-out: ID50 (HeLa cells cloning efficiency); for cytotoxicity relative to parent compounds: in words, vs respective parent compounds (Table 1)
Protocol: ^(a) HeLa cells were exposed to the test compounds for 24 hours, then
plated. The number of colonies was evaluated 5 days later.

P-388 ascitic leukemia = test: Antitumor Activity on Ascitic P 388 Leukemia in Mice; type: in vivo; settings: for antitumor activity relative to parent compounds: at the maximal tolerated dose; for in vivo toxicity relative to parent compounds: vs parent compounds; for in vivo toxicity: even at a dose of 200 mg/kg; for antitumor activity relative to daunorubicin: vs daunorubicin in the same experiment
Protocol: Several of the new compounds of the invention were tested on HeLa cells cloning efficiency in vitro and on P-388 ascitic leukemia in mice, in comparison with daunorubicin and doxorubicin.
Antitumor Activity on Ascitic P 388 Leukemia in Mice
^(a) Mice were treated i.p. on day 1 after tumor cells inoculation.
^(b) Median survival time of treated mice/median survival time of
^(c) Evaluated on the basis of macroscopic autoptic findings.
^(d) Data of two separate experiments.

[1] = 24 hours exposure, then plated, colonies evaluated 5 days later

SMILES: COc1cccc2c1C(=O)c1c(O)c3c(c(O)c1C2=O)C[C@@](O)(C(C)=O)C[C@@H]3O[C@H]1C[C@H](N)[C@H](O)[C@H](C)O1 [Daunorubicin . HCl, daunorubicin, reference compound]
IC50 (HeLa cells; 24 h): 0.0072 µg/mL
Toxic Deaths (macroscopic autoptic findings) (P-388 ascitic leukemia; 2.9 mg/kg i.p. day 1, two separate experiments, first value): 0/10
Toxic Deaths (macroscopic autoptic findings) (P-388 ascitic leukemia; 2.9 mg/kg i.p. day 1, two separate experiments, second value): 0/8
Toxic Deaths (macroscopic autoptic findings) (P-388 ascitic leukemia; 4.4 mg/kg i.p. day 1, two separate experiments, first value): 3/10
Toxic Deaths (macroscopic autoptic findings) (P-388 ascitic leukemia; 4.4 mg/kg i.p. day 1, two separate experiments, second value): 0/6
Toxic Deaths (macroscopic autoptic findings) (P-388 ascitic leukemia; 6.6 mg/kg i.p. day 1, two separate experiments, first value): 8/10
Toxic Deaths (macroscopic autoptic findings) (P-388 ascitic leukemia; 6.6 mg/kg i.p. day 1, two separate experiments, second value): 0/6

SMILES: COc1cccc2c1C(=O)c1c(O)c3c(c(O)c1C2=O)C[C@@](O)(C(=O)CO)C[C@@H]3O[C@H]1C[C@H](N)[C@H](O)[C@H](C)O1 [Doxorubicin . HCl (adriamycin), doxorubicin, reference compound]
IC50 (HeLa cells; 24 h): 0.0095 µg/mL
T/C (median survival time of treated mice/control mice × 100) (P-388 ascitic leukemia; 4.4 mg/kg i.p. day 1): 219%
Toxic Deaths (macroscopic autoptic findings) (P-388 ascitic leukemia; 4.4 mg/kg i.p. day 1): 0/8
T/C (median survival time of treated mice/control mice × 100) (P-388 ascitic leukemia; 6.6 mg/kg i.p. day 1): 223%
Toxic Deaths (macroscopic autoptic findings) (P-388 ascitic leukemia; 6.6 mg/kg i.p. day 1): 0/8
T/C (median survival time of treated mice/control mice × 100) (P-388 ascitic leukemia; 10 mg/kg i.p. day 1): 180%
Toxic Deaths (macroscopic autoptic findings) (P-388 ascitic leukemia; 10 mg/kg i.p. day 1): 4/8

SMILES: COc1cccc2c1C(=O)c1c(cc3c(c1O)[C@@H](O[C@H]1C[C@H](N)[C@H](OC)[C@H](C)O1)C[C@](O)(C(C)=O)C3)C2=O [II, 4'-O-methyl-11-deoxy-daunorubicin]
IC50 (HeLa cells; [1]): 0.066 µg/mL (≈ 0.126 µM)
cytotoxicity relative to parent compounds (HeLa cells): less cytotoxic than their respective parent compounds
T/C (median survival time of treated mice/control mice × 100) (P-388 ascitic leukemia; 25 mg/kg i.p. day 1): 180%
Toxic Deaths (macroscopic autoptic findings) (P-388 ascitic leukemia; 25 mg/kg i.p. day 1): 0/9
T/C (median survival time of treated mice/control mice × 100) (P-388 ascitic leukemia; 50 mg/kg i.p. day 1): 225%
Toxic Deaths (macroscopic autoptic findings) (P-388 ascitic leukemia; 50 mg/kg i.p. day 1): 1/9
antitumor activity relative to parent compounds (P-388 ascitic leukemia; in words): comparable to that of the parent compounds
in vivo toxicity relative to parent compounds (P-388 ascitic leukemia; in words): less toxic in vivo

SMILES: COc1cccc2c1C(=O)c1c(cc3c(c1O)[C@@H](O[C@H]1C[C@H](N)[C@H](OC)[C@H](C)O1)C[C@](O)(C(=O)CO)C3)C2=O [III, 4'-O-methyl-11-deoxy-doxorubicin]
IC50 (HeLa cells; [1]): 0.022 µg/mL (≈ 0.0406 µM)
cytotoxicity relative to parent compounds (HeLa cells): less cytotoxic than their respective parent compounds
T/C (median survival time of treated mice/control mice × 100) (P-388 ascitic leukemia; 6.6 mg/kg i.p. day 1): 195%
Toxic Deaths (macroscopic autoptic findings) (P-388 ascitic leukemia; 6.6 mg/kg i.p. day 1): 0/8
T/C (median survival time of treated mice/control mice × 100) (P-388 ascitic leukemia; 10 mg/kg i.p. day 1): 209%
Toxic Deaths (macroscopic autoptic findings) (P-388 ascitic leukemia; 10 mg/kg i.p. day 1): 0/8
T/C (median survival time of treated mice/control mice × 100) (P-388 ascitic leukemia; 15 mg/kg i.p. day 1): 238%
Toxic Deaths (macroscopic autoptic findings) (P-388 ascitic leukemia; 15 mg/kg i.p. day 1): 0/7
T/C (median survival time of treated mice/control mice × 100) (P-388 ascitic leukemia; 22.5 mg/kg i.p. day 1): 214%
Toxic Deaths (macroscopic autoptic findings) (P-388 ascitic leukemia; 22.5 mg/kg i.p. day 1): 0/10
range of active and non-toxic doses (P-388 ascitic leukemia; in words): wide range of active and non-toxic doses
antitumor activity relative to parent compounds (P-388 ascitic leukemia; in words): comparable to that of the parent compounds
in vivo toxicity relative to parent compounds (P-388 ascitic leukemia; in words): less toxic in vivo

IC50 (HeLa cells; [1]): 1 µg/mL (≈ 1.85 µM)
SMILES: COc1cccc2c1C(=O)c1c(cc3c(c1OC)[C@@H](O[C@H]1C[C@H](N)[C@H](OC)[C@H](C)O1)C[C@](O)(C(C)=O)C3)C2=O [IV, 4',6-di-O-methyl-11-deoxy-daunorubicin]

SMILES: COc1cccc2c1C(=O)c1c(O)c3c(c(OC)c1C2=O)C[C@@](O)(C(C)=O)C[C@@H]3O[C@H]1C[C@H](N)[C@H](O)[C@H](C)O1 [VI, 11-O-methyl-daunorubicin]
IC50 (HeLa cells; [1]): 0.4 µg/mL (≈ 0.739 µM)
cytotoxicity relative to parent compounds (HeLa cells): markedly less cytotoxic than are their parent compounds
T/C (median survival time of treated mice/control mice × 100) (P-388 ascitic leukemia; 100 mg/kg i.p. day 1): 111%
Toxic Deaths (macroscopic autoptic findings) (P-388 ascitic leukemia; 100 mg/kg i.p. day 1): 0/4
T/C (median survival time of treated mice/control mice × 100) (P-388 ascitic leukemia; 200 mg/kg i.p. day 1): 122%
Toxic Deaths (macroscopic autoptic findings) (P-388 ascitic leukemia; 200 mg/kg i.p. day 1): 0/3
in vivo toxicity (P-388 ascitic leukemia; in words): not toxic
antitumor activity relative to daunorubicin (P-388 ascitic leukemia; in words): comparable to that of daunorubicin

SMILES: COc1cccc2c1C(=O)c1c(O)c3c(c(OC)c1C2=O)C[C@@](O)(C(C)=O)C[C@@H]3O[C@H]1C[C@H](N)[C@H](OC)[C@H](C)O1 [VIII, 4',11-di-O-methyl-daunorubicin]
IC50 (HeLa cells; [1]): 0.5 µg/mL (≈ 0.9 µM)
cytotoxicity relative to parent compounds (HeLa cells): markedly less cytotoxic than are their parent compounds
T/C (median survival time of treated mice/control mice × 100) (P-388 ascitic leukemia; 100 mg/kg i.p. day 1): 111%
Toxic Deaths (macroscopic autoptic findings) (P-388 ascitic leukemia; 100 mg/kg i.p. day 1): 0/6
T/C (median survival time of treated mice/control mice × 100) (P-388 ascitic leukemia; 200 mg/kg i.p. day 1): 122%
Toxic Deaths (macroscopic autoptic findings) (P-388 ascitic leukemia; 200 mg/kg i.p. day 1): 0/6
in vivo toxicity (P-388 ascitic leukemia; in words): not toxic
antitumor activity relative to daunorubicin (P-388 ascitic leukemia; in words): comparable to that of daunorubicin
